IC50 data for 16 compounds are collected here from patent US9233983B2, “Substituted hetero-bicyclic compounds, compositions and medicinal applications thereof” (ADVINUS THERAPEUTICS LIMITED, priority 2012, dated 2016).

Like-named read-outs stand apart in the source and are kept apart here.

Assay [1] deals with human Bruton's Tyrosine Kinase (Btk) (Homo sapiens (Human), UniProt Q06187). The assay can be described thus: Recombinant Human Bruton's Tyrosine Kinase (Btk) Inhibition Assay (HTRF KinEASE-TK). The assay is classed as biochemical. As to conditions: read-out: hBTK IC50. A general note: In TR-FRET formats the signal depends on donor and acceptor labels being close together.
Assay [2] relates to mouse splenocytes. The assay can be described thus: Inhibition of B Cell Activation as Measured by CD69 Expression in Mouse Splenocytes. Type of assay: cell-based. To be noted: Splenocyte. As for the experimental part: Inhibition of B Cell Activation as Measured by CD69 Expression in Mouse Splenocytes:
To test the effect of BTK inhibitors in suppressing B-cell receptor (BCR) mediated activation of B cells, we developed a flow cytometry based assay to analyze CD69 expression in B cell population among total splenocyte from the mouse. […] Finally, cell were cultured in RPMI medium with 10% FBS.
Test compounds were diluted half log starting from 2 mM in 100% DMSO (200×). 1×10^5 splenocytes were incubated with 1 uL of diluted test compounds in 200 uL culture medium in a U-bottom 96 well plate (Greiner) at 37° C. with 5% CO2 for 30 mins. Control wells received 1 uL of 100% DMSO without any compound. The cells were stimulated with 3 ug/mL goat anti-mouse IgM (Sigma, cat#M8644) and incubated for 18-20 hrs. […] Then the cells were washed 3 times with PBS with 1% FBS and analyzed by Guava Easycyte Mini flow cytometer system (Millipore). Flow cytometry data were analyzed using Weasel software (WEHI, Melbourne). First B cells were gated using CD19 markers. Then expression of CD69 was analyzed as percentage of CD69+ve cells within CD19. Percent activity for each data point was calculated using following formula: […]
Percentage activity was fit using sigmoid dose response with variable slope logistic equation in Graph-pad Prism 5 software to determine inhibition constant 50 (IC50).

[3] abbreviates: 20 ng/ml rhBtk, 77 μM ATP (KM), 1 μM TK-Biotin substrate, 90 min.
The mark [4] stands for this setting: C57/BL6 splenocytes, 3 ug/mL goat anti-mouse IgM, 18-20 hrs, CD69+ve cells within CD19, read-out: Mouse spleenocyte IC50.
The mark [5] stands for this setting: Mus musculus, read-out: Mouse spleenocyte IC50 (nM).

Sequence of human Bruton's Tyrosine Kinase (Btk) (Q06187 whole entry): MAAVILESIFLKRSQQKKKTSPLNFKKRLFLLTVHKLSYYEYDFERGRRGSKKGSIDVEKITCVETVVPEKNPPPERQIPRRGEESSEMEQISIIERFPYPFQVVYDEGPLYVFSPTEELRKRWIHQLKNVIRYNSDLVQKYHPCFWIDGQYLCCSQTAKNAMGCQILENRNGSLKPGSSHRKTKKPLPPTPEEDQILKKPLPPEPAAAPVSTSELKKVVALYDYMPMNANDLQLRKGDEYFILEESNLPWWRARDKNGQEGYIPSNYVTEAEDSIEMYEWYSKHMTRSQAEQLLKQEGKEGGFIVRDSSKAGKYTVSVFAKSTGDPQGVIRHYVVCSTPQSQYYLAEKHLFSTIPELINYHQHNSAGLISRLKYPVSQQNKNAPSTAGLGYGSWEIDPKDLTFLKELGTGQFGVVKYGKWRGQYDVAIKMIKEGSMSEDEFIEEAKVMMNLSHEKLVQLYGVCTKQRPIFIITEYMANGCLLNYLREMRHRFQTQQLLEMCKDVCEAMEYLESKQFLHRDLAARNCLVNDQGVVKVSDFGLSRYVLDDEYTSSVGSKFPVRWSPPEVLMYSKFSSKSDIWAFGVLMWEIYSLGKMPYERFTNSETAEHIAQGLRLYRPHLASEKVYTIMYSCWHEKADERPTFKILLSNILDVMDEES

By IC50 is commonly meant the concentration at which inhibition is half-maximal. In the case of `CN1CCN(Cc2ccc(-c3cc4c(-c5cccc(N6CCOc7cc(C8CC8)ccc7C6=O)c5CO)ccnc4[nH]3)cn2)CC1` [Example B-20, 8-cyclopropyl-4-[2-(hydroxymethyl)-3-[2-[6-[(4-methylpiperazin-1-yl)methyl]-3-pyridyl]-1H-pyrrolo[2,3-b]pyridin-4-yl]phenyl]-2,3-dihydro-1,4-benzoxazepin-5-one], the results for the IC50 in assay [1] (setting [3]) and in assay [2] (setting [4]) were 7 nM and 67 nM, respectively.
In the case of `N#CC1CCN(Cc2ccc(-c3cc4c(-c5cccc(N6CCOc7cc(C8CC8)ccc7C6=O)c5CO)ncnc4[nH]3)cc2)CC1` [Example B-14, 1-[[4-[4-[3-(8-cyclopropyl-5-oxo-2,3-dihydro-1,4-benzoxazepin-4-yl)-2-(hydroxymethyl)phenyl]-7H-pyrrolo[2,3-d]pyrimidin-6-yl]phenyl]methyl]piperidine-4-carbonitrile], the IC50 came out at 7 nM in assay [1] (setting [3]) and 96 nM in assay [2] (setting [4]).
For `CC(C)N1CCN(Cc2ccc(-c3cc4c(-c5cccc(N6CCOc7cc(C8CC8)ccc7C6=O)c5CO)ccnc4[nH]3)nc2)CC1` [Example I-7, 8-cyclopropyl-4-[2-(hydroxymethyl)-3-[2-[5-[(4-isopropylpiperazin-1-yl)methyl]-2-pyridyl]-1H-pyrrolo[2,3-b]pyridin-4-yl]phenyl]-2,3-dihydro-1,4-benzoxazepin-5-one], the IC50 in assay [1] (setting [3]) is 2 nM; in assay [2] (setting [4]), 21 nM.
For `CN1CC(n2cc(-c3cc4c(-c5cccc(N6CCOc7cc(C8CC8)ccc7C6=O)c5CO)ccnc4[nH]3)cn2)C1` [Example D-7, 8-cyclopropyl-4-[2-(hydroxymethyl)-3-[2-[1-(1-methylazetidin-3-yl)pyrazol-4-yl]-1H-pyrrolo[2,3-b]pyridin-4-yl]phenyl]-2,3-dihydro-1,4-benzoxazepin-5-one], in that order: 4 nM and 43 nM.
As for `O=C1c2c(F)cc(C3CC3)cc2OCCN1c1cccc(-c2ccnc3[nH]c(C4=CCN(C5CCOC5)CC4)cc23)c1CO` (centres unmarked) [Example P-21, 8-cyclopropyl-6-fluoro-4-[2-(hydroxymethyl)-3-[2-(1-tetrahydrofuran-3-yl-3,6-dihydro-2H-pyridin-4-yl)-1H-pyrrolo[2,3-b]pyridin-4-yl]phenyl]-2,3-dihydro-1,4-benzoxazepin-5-one], the half-maximal inhibitory concentration (IC50) turned out to be 4 nM in assay [1] (setting [3]) and 59 nM in assay [2] (setting [4]).
On to `O=C1c2c(F)cc(C3CC3)cc2OCCN1c1cccc(-c2ccnc3[nH]c(-c4ccc(CN5CCN(CC(F)(F)F)CC5)cn4)cc23)c1CO` [Example I-16, 8-cyclopropyl-6-fluoro-4-[2-(hydroxymethyl)-3-[2-[5-[[4-(2,2,2-trifluoroethyl)piperazin-1-yl]methyl]-2-pyridyl]-1H-pyrrolo[2,3-b]pyridin-4-yl]phenyl]-2,3-dihydro-1,4-benzoxazepin-5-one], for which the IC50 in assay [1] (setting [3]) was 1.6 nM; in assay [2] (setting [4]) it was 7.7 nM.
Regarding `Cc1c(-c2ncnc3[nH]c(-c4ccc(CN5CCNCC5)cc4)cc23)cccc1N1CCc2cc(C3CC3)ccc2C1=O` [Example A-2, 6-cyclopropyl-2-[2-methyl-3-[6-[4-(piperazin-1-ylmethyl)phenyl]-7H-pyrrolo[2,3-d]pyrimidin-4-yl]phenyl]-3,4-dihydroisoquinolin-1-one], the IC50 in assay [1] (setting [3]) is 7 nM; in assay [2] (setting [4]), 165 nM.
For the compound `CC(C)N1CC(n2cnc(-c3cc4c(-c5cccc(N6CCOc7cc(C8CC8)ccc7C6=O)c5CO)ccnc4[nH]3)c2)C1` [Example P-9, 8-cyclopropyl-4-[2-(hydroxymethyl)-3-[2-[1-(1-isopropylazetidin-3-yl)imidazol-4-yl]-1H-pyrrolo[2,3-b]pyridin-4-yl]phenyl]-2,3-dihydro-1,4-benzoxazepin-5-one], the IC50 in assay [1] (setting [3]) was 7 nM; in assay [2] (setting [4]) it was 104 nM.
`CN1CCCC(n2cc(-c3cc4c(-c5cccc(N6CCOc7cc(C8CC8)ccc7C6=O)c5CO)ncnc4[nH]3)cn2)C1` [Example D-6, 8-cyclopropyl-4-[2-(hydroxymethyl)-3-[6-[1-(1-methyl-3-piperidyl)pyrazol-4-yl]-7H-pyrrolo[2,3-d]pyrimidin-4-yl]phenyl]-2,3-dihydro-1,4-benzoxazepin-5-one]: the IC50 in assay [1] (setting [3]) came to 5 nM; in assay [2] (setting [4]), 53 nM.
Regarding `CN(C)C(=O)N1CC=C(c2cc3c(-c4cccc(N5CCOc6cc(C(C)(C)O)ccc6C5=O)c4CO)ccnc3[nH]2)CC1` [Example P-10, 4-[4-[2-(hydroxymethyl)-3-[8-(1-hydroxy-1-methyl-ethyl)-5-oxo-2,3-dihydro-1,4-benzoxazepin-4-yl]phenyl]-1H-pyrrolo[2,3-b]pyridin-2-yl]-N,N-dimethyl-3,6-dihydro-2H-pyridine-1-carboxamide], the values for the IC50 in assay [1] (setting [3]) and in assay [2] (setting [4]) were 6 nM and 94 nM, respectively.
As for `CC1(O)CCN(Cc2ccc(-c3cc4c(-c5cccc(N6CCOc7cc(C8CC8)ccc7C6=O)c5CO)ncnc4[nH]3)cc2)CC1` [Example B-6, 8-cyclopropyl-4-[2-(hydroxymethyl)-3-[6-[4-[(4-hydroxy-4-methyl-1-piperidyl)methyl]phenyl]-7H-pyrrolo[2,3-d]pyrimidin-4-yl]phenyl]-2,3-dihydro-1,4-benzoxazepin-5-one], the IC50 is 7 nM in assay [1] and 81 nM in assay [2] (setting [5]).
As for `O=C(CN1CCC1)N1CC=C(c2cc3c(-c4cccc(N5CCOc6cc(C7CC7)cc(F)c6C5=O)c4CO)ccnc3[nH]2)CC1` [Example P-28, 4-[3-[2-[1-[2-(azetidin-1-yl)acetyl]-3,6-dihydro-2H-pyridin-4-yl]-1H-pyrrolo[2,3-b]pyridin-4-yl]-2-(hydroxymethyl)phenyl]-8-cyclopropyl-6-fluoro-2,3-dihydro-1,4-benzoxazepin-5-one], the IC50 in assay [1] (setting [3]) turned out to be 3.1 nM; in assay [2] (setting [5]), 63 nM.
Consider `CN1CCN(c2ccc(-c3cc4c(-c5cccc(N6CCOc7cc(C8CC8)ccc7C6=O)c5CO)ncnc4[nH]3)cc2)CC1` [Example C-2, 8-cyclopropyl-4-[2-(hydroxymethyl)-3-[6-[4-(4-methylpiperazin-1-yl)phenyl]-7H-pyrrolo[2,3-d]pyrimidin-4-yl]phenyl]-2,3-dihydro-1,4-benzoxazepin-5-one], for which the IC50 in assay [1] (setting [3]) is 12 nM; in assay [2] (setting [4]), 36 nM.
`Cc1c(-c2ncnc3[nH]c(-c4ccc(N5CCN(C)CC5)cc4)cc23)cccc1N1CCOc2cc(C3CC3)ccc2C1=O` [Example C-3, 8-cyclopropyl-4-[2-methyl-3-[6-[4-(4-methylpiperazin-1-yl)phenyl]-7H-pyrrolo[2,3-d]pyrimidin-4-yl]phenyl]-2,3-dihydro-1,4-benzoxazepin-5-one]: the IC50 in assay [1] (setting [3]) is 21 nM; in assay [2] (setting [4]), 175 nM.
For `Cc1c(-c2ncnc3[nH]c(-c4ccc(C(=O)N5CCC(O)CC5)cc4)cc23)cccc1-n1ncc2cc(C3CC3)ccc2c1=O` [Example K-20, 6-cyclopropyl-2-[3-[6-[4-(4-hydroxypiperidine-1-carbonyl)phenyl]-7H-pyrrolo[2,3-d]pyrimidin-4-yl]-2-methyl-phenyl]phthalazin-1-one], in that order: 44 nM and 195 nM.
Consider `CN(C)C(=O)N1CC=C(c2cc3c(-c4cccc(N5CCOc6cc(C7CC7)ccc6C5=O)c4CO)ccnc3[nH]2)CC1` [Example P-5, 4-[4-[3-(8-cyclopropyl-5-oxo-2,3-dihydro-1,4-benzoxazepin-4-yl)-2-(hydroxymethyl)phenyl]-1H-pyrrolo[2,3-b]pyridin-2-yl]-N,N-dimethyl-3,6-dihydro-2H-pyridine-1-carboxamide], for which the half-maximal inhibitory concentration (IC50) in assay [1] (setting [3]) came to 2 nM; in assay [2] (setting [4]) it was 14.6 nM.
